Data as given in patent US8309577B2, “Quinuclidine compounds as α-7 nicotinic acetylcholine receptor ligands” (Bristol-Myers Squibb Company, priority 2008, dated 2012).

The compounds below were run against T1, α-7 nicotinic acetylcholine receptor channel expressed in HEK 293 cells (Rattus norvegicus, UniProt Q05941) (assay: Ca2+-sensitive fluorescence-based FLIPR assay, α7 nicotinic ACh receptor channel function (agonist)). Conditions: FLIPR α7 (EC50, nM), Table 1; HEK 293 cells, agonist Ca2+ flux.
T1 construct: expressed in transfected cells
T1 sequence (Q05941 23-502): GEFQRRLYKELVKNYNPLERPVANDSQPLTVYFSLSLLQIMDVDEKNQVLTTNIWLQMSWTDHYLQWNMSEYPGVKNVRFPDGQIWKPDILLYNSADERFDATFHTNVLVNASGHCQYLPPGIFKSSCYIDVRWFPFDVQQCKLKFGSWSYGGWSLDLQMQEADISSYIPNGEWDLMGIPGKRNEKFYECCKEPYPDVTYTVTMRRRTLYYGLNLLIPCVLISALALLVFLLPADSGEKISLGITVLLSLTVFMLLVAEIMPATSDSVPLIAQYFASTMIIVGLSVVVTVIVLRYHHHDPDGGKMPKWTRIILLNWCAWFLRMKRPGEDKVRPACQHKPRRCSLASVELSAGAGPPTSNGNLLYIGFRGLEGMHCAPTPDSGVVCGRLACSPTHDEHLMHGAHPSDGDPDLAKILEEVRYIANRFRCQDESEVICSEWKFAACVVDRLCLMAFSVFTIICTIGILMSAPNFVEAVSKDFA
Format: cell-based
Method in brief: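 Potency and efficacy derived from kinetic FLIPR Ca²⁺-flux fluorescence, recorded 3 min after compound addition in Hanks buffer following a 10 s baseline.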

`COCc1cc(NC2=NC[C@@]3(CN4CCC3CC4)O2)ncn1` [Example 218, (R)—N-(6-(methoxymethyl)pyrimidin-4-yl)-4H-1′-azaspiro[oxazole-5,3′-bicyclo[2.2.2]octan]-2-amine] gave an EC50 of 285 nM.

Same assay, conditions: FLIPR α7 activity rating (EC50, nM), Table 1; HEK 293 cells, agonist Ca2+ flux

`Clc1ccnc(NC2=NC[C@@]3(CN4CCC3CC4)O2)c1` [Example 215] and `Clc1cnc(NC2=NC[C@@]3(CN4CCC3CC4)O2)cc1Cl` [Example 252, (R)—N-(4,5-Dichloropyridin-2-yl)-4H-1′-azaspiro[oxazole-5,3′-bicyclo[2.2.2]octan]-2-amine] cannot be ordered by EC50: < 100 nM for the first, < 100 nM for the second.

First: CC(C)Oc1cnc(NC2=NC[C@@]3(CN4CCC3CC4)O2)cn1 [Example 216]
Second: CC(C)Oc1cc(NC2=NC[C@@]3(CN4CCC3CC4)O2)ncn1 [Example 232, (R)—N-(6-Isopropoxypyrimidin-4-yl)-4H-1′-azaspiro[oxazole-5,3′-bicyclo[2.2.2]octan]-2-amine]
The EC50 of the first is higher: 1000 to 100000 nM for the first, 100 to 1000 nM for the second. The second is the more potent here.

Compared with `CN1CCCC1c1ccc(NC2=NC[C@@]3(CN4CCC3CC4)O2)nc1` (stereo partly shown) [Example 217], `Cc1cc(NC2=NC[C@@]3(CN4CCC3CC4)O2)ncc1Cl` [Example 253, (R)—N-(5-Chloro-4-methylpyridin-2-yl)-4H-1′-azaspiro[oxazole-5,3′-bicyclo[2.2.2]octan]-2-amine] is lower in EC50: 1000 to 100000 nM for the first, < 100 nM for the second.

First: COCc1cc(NC2=NC[C@@]3(CN4CCC3CC4)O2)ncn1 [Example 218, (R)—N-(6-(methoxymethyl)pyrimidin-4-yl)-4H-1′-azaspiro[oxazole-5,3′-bicyclo[2.2.2]octan]-2-amine]
Second: CSc1cc(NC2=NC[C@@]3(CN4CCC3CC4)O2)ncn1 [Example 261, (R)—N-(6-(Methylthio)pyrimidin-4-yl)-4H-1′-azaspiro[oxazole-5,3′-bicyclo[2.2.2]octan]-2-amine]
The EC50 of the first is higher: 100 to 1000 nM for the first, < 100 nM for the second.

Compared with `c1nc(NC2=NC[C@@]3(CN4CCC3CC4)O2)ncc1OC1CCCC1` [Example 219, (R)—N-(5-(Cyclopentyloxy)pyrimidin-2-yl)-4H-1′-azaspiro[oxazole-5,3′-bicyclo[2.2.2]octan]-2-amine], `c1nc(NC2=NC[C@@]3(CN4CCC3CC4)O2)cc(OC2CCCC2)n1` [Example 231, (R)—N-(6-(Cyclopentyloxy)pyrimidin-4-yl)-4H-1′-azaspiro[oxazole-5,3′-bicyclo[2.2.2]octan]-2-amine] is lower in EC50: 1000 to 100000 nM for the first, 100 to 1000 nM for the second.

Compared with `CC(C)c1cc2c(NC3=NC[C@@]4(CN5CCC4CC5)O3)ncnc2s1` [Example 223], `CC(C)c1nc(NC2=NC[C@@]3(CN4CCC3CC4)O2)ncc1Br` [Example 229, (R)—N-(5-Bromo-4-isopropylpyrimidin-2-yl)-4H-1′-azaspiro[oxazole-5,3′-bicyclo[2.2.2]octan]-2-amine] is lower in EC50: 100 to 1000 nM for the first, < 100 nM for the second. The second is the more potent here.

Compared with `CCc1cnc(NC2=NC[C@@]3(CN4CCC3CC4)O2)nc1` [Example 227], `CCc1nnc(NC2=NC[C@@]3(CN4CCC3CC4)O2)o1` [Example 266, (R)—N-(5-Ethyl-1,3,4-oxadiazol-2-yl)-4H-1′-azaspiro[oxazole-5,3′-bicyclo[2.2.2]octan]-2-amine] is higher in EC50: 100 to 1000 nM for the first, 1000 to 100000 nM for the second. The first is the more potent here.

Compared with `FC(F)(F)COc1cc(NC2=NC[C@@]3(CN4CCC3CC4)O2)ncn1` [Example 228, (R)—N-(6-(2,2,2-Trifluoroethoxy)pyrimidin-4-yl)-4H-1′-azaspiro[oxazole-5,3′-bicyclo[2.2.2]octan]-2-amine], `c1ccc(Oc2cc(NC3=NC[C@@]4(CN5CCC4CC5)O3)ncn2)cc1` [Example 240, (R)—N-(6-Phenoxypyrimidin-4-yl)-4H-1′-azaspiro[oxazole-5,3′-bicyclo[2.2.2]octan]-2-amine] is higher in EC50: < 100 nM for the first, 100 to 1000 nM for the second.

`Brc1cnc(NC2=NC[C@@]3(CN4CCC3CC4)O2)nc1-c1cccnc1` [Example 230, (R)—N-(5-Bromo-4-(pyridin-3-yl)pyrimidin-2-yl)-4H-1′-azaspiro[oxazole-5,3′-bicyclo[2.2.2]octan]-2-amine] and `c1cncc(-c2cc(NC3=NC[C@@]4(CN5CCC4CC5)O3)ncn2)c1` [Example 244, (R)—N-(6-(Pyridin-3-yl)pyrimidin-4-yl)-4H-1′-azaspiro[oxazole-5,3′-bicyclo[2.2.2]octan]-2-amine] cannot be ordered by EC50: < 100 nM for the first, < 100 nM for the second.

First: c1cc(NC2=NC[C@@]3(CN4CCC3CC4)O2)ccn1 [Example 235, (R)—N-(Pyridin-4-yl)-4H-1′-azaspiro[oxazole-5,3′-bicyclo[2.2.2]octan]-2-amine]
Second: c1cc(-c2cc(NC3=NC[C@@]4(CN5CCC4CC5)O3)ncn2)ccn1 [Example 246, (R)—N-(6-(Pyridin-4-yl)pyrimidin-4-yl)-4H-1′-azaspiro[oxazole-5,3′-bicyclo[2.2.2]octan]-2-amine]
The EC50 of the first is higher: 1000 to 100000 nM for the first, < 100 nM for the second. The second is the more potent here.

First: c1ccc(COc2ccc3nc(NC4=NC[C@@]5(CN6CCC5CC6)O4)sc3n2)cc1 [Example 236, (R)—N-(5-(Benzyloxy)thiazolo[5,4-b]pyridin-2-yl)-4H-1′-azaspiro[oxazole-5,3′-bicyclo[2.2.2]octan]-2-amine]
Second: COc1ncc2nc(NC3=NC[C@@]4(CN5CCC4CC5)O3)sc2n1 [Example 265, (R)—N-(5-Methoxythiazolo[5,4-d]pyrimidin-2-yl)-4H-1′-azaspiro[oxazole-5,3′-bicyclo[2.2.2]octan]-2-amine]
The EC50 of the first is higher: 1000 to 100000 nM for the first, < 100 nM for the second. The second is the more potent here.

`O=c1ccc2nc(NC3=NC[C@@]4(CN5CCC4CC5)O3)sc2[nH]1` [Example 237, (R)-2-(4H-1′-azaspiro[oxazole-5,3′-bicyclo[2.2.2]octane]-2-ylamino)thiazolo[5,4-b]pyridin-5(4H)-one] and `Brc1cnc2nc(NC3=NC[C@@]4(CN5CCC4CC5)O3)sc2n1` [Example 263, (R)—N-(6-bromothiazolo[5,4-b]pyrazin-2-yl)-4H-1′-azaspiro[oxazole-5,3′-bicyclo[2.2.2]octan]-2-amine] cannot be ordered by EC50: < 100 nM for the first, < 100 nM for the second.

`COc1ccc2ncc(NC3=NC[C@@]4(CN5CCC4CC5)O3)nc2c1` [Example 241, (R)—N-(7-methoxyquinoxalin-2-yl)-4H-1′-azaspiro[oxazole-5,3′-bicyclo[2.2.2]octan]-2-amine] and `Cc1ccc2ncc(NC3=NC[C@@]4(CN5CCC4CC5)O3)nc2c1` [Example 243, (R)—N-(7-Methylquinoxalin-2-yl)-4H-1′-azaspiro[oxazole-5,3′-bicyclo[2.2.2]octan]-2-amine] fall in the same range of EC50: 1000 to 100000 nM for the first, 1000 to 100000 nM for the second.

`Cc1ccc2nc(NC3=NC[C@@]4(CN5CCC4CC5)O3)cnc2c1` [Example 242, (R)—N-(6-Methylquinoxalin-2-yl)-4H-1′-azaspiro[oxazole-5,3′-bicyclo[2.2.2]octan]-2-amine] and `Cc1nc(NC2=NC[C@@]3(CN4CCC3CC4)O2)ccc1C#N` [Example 247, (R)-6-(4H-1′-Azaspiro[oxazole-5,3′-bicyclo[2.2.2]octane]-2-ylamino)-2-methylnicotinonitrile] fall in the same range of EC50: 100 to 1000 nM for the first, 100 to 1000 nM for the second.

`COc1ncc(-c2cc(NC3=NC[C@@]4(CN5CCC4CC5)O3)ncn2)cn1` [Example 245, (R)—N-(2′-Methoxy-4,5′-bipyrimidin-6-yl)-4H-1′-azaspiro[oxazole-5,3′-bicyclo[2.2.2]octan]-2-amine] and `Clc1ccc(-c2cc(NC3=NC[C@@]4(CN5CCC4CC5)O3)ncn2)cc1` [Example 256, (R)—N-(6-(4-Chlorophenyl)pyrimidin-4-yl)-4H-1′-azaspiro[oxazole-5,3′-bicyclo[2.2.2]octan]-2-amine] cannot be ordered by EC50: < 100 nM for the first, < 100 nM for the second.

First: Cc1cc(NC2=NC[C@@]3(CN4CCC3CC4)O2)nc(C)c1C#N [Example 248, (R)-6-(4H-1′-Azaspiro[oxazole-5,3′-bicyclo[2.2.2]octane]-2-ylamino)-2,4-dimethylnicotinonitrile]
Second: Clc1ccc(NC2=NC[C@@]3(CN4CCC3CC4)O2)nc1Cl [Example 251, (R)—N-(5,6-Dichloropyridin-2-yl)-4H-1′-azaspiro[oxazole-5,3′-bicyclo[2.2.2]octan]-2-amine]
The EC50 of the first is higher: 100 to 1000 nM for the first, < 100 nM for the second.

First: c1ccc(-c2ccc(NC3=NC[C@@]4(CN5CCC4CC5)O3)nn2)cc1 [Example 249, (R)—N-(6-Phenylpyridazin-3-yl)-4H-1′-azaspiro[oxazole-5,3′-bicyclo[2.2.2]octan]-2-amine]
Second: Clc1ccc(NC2=NC[C@@]3(CN4CCC3CC4)O2)nn1 [Example 254, (R)—N-(6-Chloropyridazin-3-yl)-4H-1′-azaspiro[oxazole-5,3′-bicyclo[2.2.2]octan]-2-amine]
The EC50 of the first is higher: 1000 to 100000 nM for the first, 100 to 1000 nM for the second.

Compared with `Brc1ccc(NC2=NC[C@@]3(CN4CCC3CC4)O2)nn1` [Example 255, (R)—N-(6-Bromopyridazin-3-yl)-4H-1′-azaspiro[oxazole-5,3′-bicyclo[2.2.2]octan]-2-amine], `c1ccn2c(NC3=NC[C@@]4(CN5CCC4CC5)O3)nnc2c1` [Example 262, (R)—N-([1,2,4]Triazol[4,3-a]pyridine-3-yl)-4H-1′-azaspiro[oxazole-5,3′-bicyclo[2.2.2]octan]-2-amine] is higher in EC50: 100 to 1000 nM for the first, 1000 to 100000 nM for the second.

`Clc1cccc(-c2cc(NC3=NC[C@@]4(CN5CCC4CC5)O3)ncn2)c1` [Example 257, (R)—N-(6-(3-Chlorophenyl)pyrimidin-4-yl)-4H-1′-azaspiro[oxazole-5,3′-bicyclo[2.2.2]octan]-2-amine] and `Clc1cnc(NC2=NC[C@@]3(CN4CCC3CC4)O2)c(Cl)c1` [Example 267, (R)—N-(3,5-Dichloropyridin-2-yl)-4H-1′-azaspiro[oxazole-5,3′-bicyclo[2.2.2]octan]-2-amine] cannot be ordered by EC50: < 100 nM for the first, < 100 nM for the second.

First: Cc1nnc(NC2=NC[C@@]3(CN4CCC3CC4)O2)o1 [Example 258, (R)—N-(5-Methyl-1,3,4-oxadiazol-2-yl)-4H-1′-azaspiro[oxazole-5,3′-bicyclo[2.2.2]octan]-2-amine]
Second: Cc1noc(NC2=NC[C@@]3(CN4CCC3CC4)O2)n1 [Example 260, (R)—N-(3-Methyl-1,2,4-oxadiazol-5-yl)-4H-1′-azaspiro[oxazole-5,3′-bicyclo[2.2.2]octan]-2-amine]
The EC50 of the first is higher: 1000 to 100000 nM for the first, 100 to 1000 nM for the second. The second is the more potent here.

First: Cc1nsc(NC2=NC[C@@]3(CN4CCC3CC4)O2)n1 [Example 259, (R)—N-(3-Methyl-1,2,4-thiadiazol-5-yl)-4H-1′-azaspiro[oxazole-5,3′-bicyclo[2.2.2]octan]-2-amine]
Second: CSc1cnc2nc(NC3=NC[C@@]4(CN5CCC4CC5)O3)sc2n1 [Example 264, (R)—N-(6-(methylthio)thiazolo[5,4-h]pyrazin-2-yl)-4H-1′-azaspiro[oxazole-5,3′-bicyclo[2.2.2]octan]-2-amine]
The EC50 of the first is higher: 1000 to 100000 nM for the first, 100 to 1000 nM for the second.
